Patent US20230293519A1, “INTEGRIN INHIBITORS AND USES THEREOF IN COMBINATION WITH OTHER AGENTS” (Pliant Therapeutics, Inc., priority 2021, published 2023)
“Also recorded” adds a separate entry of the source.

Experiments:
[1] = test system: patients with idiopathic pulmonary fibrosis (IPF); test: Phase 2a trial in IPF: FVC, QLF, biomarkers; assay type: in vivo, human; conditions: for proportion of patients with ≥10% decline in FVCpp: 12 weeks
Description: The exploratory endpoints of the trial measured changes in forced vital capacity (FVC), HRCT-based Quantitative Lung Fibrosis score (QLF), and selected biomarkers over 3 months of treatment.

COL1A1 expression = test: PCLS from human IPF lung tissue, 7 days: COL1A1 expression; assay type: cell-based
Method: PCLS from 5-7 idopathic pulmonary fibrosis (IPF) lung tissue samples were cultured for seven days with one of: DMSO; Compound 5 at 200 nM; nintedanib at 75 nM; pirfenidone at 50 µm; a combination of Compound 5 at 200 nM and nintedanib at 75 nM; a combination of Compound 5 at 200 nM and pirfenidone at 50 µm; or an Alk5 inhibitor at 1 µm. […] FIG. 6D is a bar graph showing relative expression of COL1A1 in precision cut lung slices (PCLS) from idopathic pulmonary fibrosis (IPF) lung tissue upon exposure to Comopund 5, clinical standard of care compounds nintedanib (Nin) and pirfenidone (Pirf), and an ALK5 inhibitor, all versus DMSO control.
PCLS from a single IPF lung tissue sample were cultured for seven days with Compound 5 at concentrations of 200 pM, 2 nM, 60 nM, 200 nM, and 1 µM, along with 0.1% DMSO control and an Alk5 inhibitor at 1 µM. […] COL1A1 expression is also graphed for the PCLS in the presence of 0.1% DMSO control, and an Alk5 inhibitor at 1 µM.

[2] = test system: Type I Collagen gene Col1a1 expression; test: Precision cut lung slices of mice under acute bleomycin exposure; assay type: cell-based, mouse; conditions: slices cultured 3 days; integrin inhibitors at IC50, pan-αv and ALK5 inhibitors at 10x IC50
αvβ6 = αvβ6 (Homo sapiens (Human), UniProt P06756+P18564); test: [18F]FP-R01-MG-F2 PET/CT target engagement in participants with IPF; assay type: in vivo
Method: The aim of this Example is to assess target engagement of the disclosed compounds to αvβ6 in human participants with IPF using [^18F]FP-R01-MG-F2 PET/computerized tomography (CT) imaging.
This Example was conducted as an open-label, single-dose (60 mg, 120 mg, 240 mg or 320 mg) clinical trial evaluating αvβ6 receptor occupancy in the lungs, safety, and pharmacokinetics of Compound #5 in subjects with IPF. To date, 4 participants have completed the study. Each of these 4 participants was undergoing a pre-existing course of therapy using one of the SoC (Standard of Care) compounds, nintedanib. These participants continued their pre-existing nintedanib therapy throughout this study. Knottin tracer uptake kinetics were compared pre- and post-dose of the disclosed compound, as measured by standardized uptake values (SUVs) and parameters estimated from kinetic modeling in regions-of-interest on dynamic [^18F]FP-R01-MG-F2 PET/CT scans. […] Receptor occupancy was estimated from the output of the two-compartment model (VT, the […]) using standard equations and fitting algorithms, and corrections for VND (non-displaceable tracer binding). For example, in FIG. 10, the data points, shown as circles, are modeled by the following formula: […]
Five subjects with IPF were enrolled: Subject A received a single dose of 60 mg of the disclosed compound followed by a post-dose scan. Subject B received two doses of the disclosed compound separated by two weeks, 120 mg and 240 mg, each followed by a post-dose scan. Subject C received two doses of the disclosed compound separated by two weeks, 240 mg and 320 mg, each followed by a post-dose scan. Subject D received a single dose of 320 mg of the disclosed compound followed by a post-dose scan.

Sequence of αvβ6 (P06756 31-889): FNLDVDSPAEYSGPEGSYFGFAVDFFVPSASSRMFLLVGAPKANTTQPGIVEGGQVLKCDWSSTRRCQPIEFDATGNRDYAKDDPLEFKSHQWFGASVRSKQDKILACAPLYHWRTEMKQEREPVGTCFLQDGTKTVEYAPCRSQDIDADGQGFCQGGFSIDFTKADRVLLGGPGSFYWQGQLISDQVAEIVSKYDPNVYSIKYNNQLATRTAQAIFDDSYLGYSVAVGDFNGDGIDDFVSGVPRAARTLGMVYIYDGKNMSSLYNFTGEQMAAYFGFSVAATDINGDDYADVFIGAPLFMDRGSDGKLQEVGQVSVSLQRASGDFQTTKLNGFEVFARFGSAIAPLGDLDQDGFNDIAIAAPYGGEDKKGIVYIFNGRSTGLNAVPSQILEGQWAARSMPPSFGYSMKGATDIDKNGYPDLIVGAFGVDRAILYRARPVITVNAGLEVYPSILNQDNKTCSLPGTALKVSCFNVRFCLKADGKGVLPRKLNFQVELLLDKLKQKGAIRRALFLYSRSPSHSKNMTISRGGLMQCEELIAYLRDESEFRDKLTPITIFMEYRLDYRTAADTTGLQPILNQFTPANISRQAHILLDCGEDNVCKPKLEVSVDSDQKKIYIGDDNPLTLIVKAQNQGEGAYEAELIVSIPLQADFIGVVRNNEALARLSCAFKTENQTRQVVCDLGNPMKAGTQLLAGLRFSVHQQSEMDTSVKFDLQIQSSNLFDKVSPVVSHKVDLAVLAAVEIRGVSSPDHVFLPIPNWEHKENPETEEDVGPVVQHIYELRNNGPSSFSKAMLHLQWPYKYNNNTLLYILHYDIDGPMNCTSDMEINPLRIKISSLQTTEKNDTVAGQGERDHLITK
Sequence of αvβ6 (P06756 890-1048 partner): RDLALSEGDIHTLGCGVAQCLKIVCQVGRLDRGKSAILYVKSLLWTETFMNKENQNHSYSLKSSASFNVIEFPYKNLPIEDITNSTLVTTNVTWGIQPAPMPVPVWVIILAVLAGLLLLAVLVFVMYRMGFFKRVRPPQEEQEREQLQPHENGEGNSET
Sequence of αvβ6 (P18564 22-788): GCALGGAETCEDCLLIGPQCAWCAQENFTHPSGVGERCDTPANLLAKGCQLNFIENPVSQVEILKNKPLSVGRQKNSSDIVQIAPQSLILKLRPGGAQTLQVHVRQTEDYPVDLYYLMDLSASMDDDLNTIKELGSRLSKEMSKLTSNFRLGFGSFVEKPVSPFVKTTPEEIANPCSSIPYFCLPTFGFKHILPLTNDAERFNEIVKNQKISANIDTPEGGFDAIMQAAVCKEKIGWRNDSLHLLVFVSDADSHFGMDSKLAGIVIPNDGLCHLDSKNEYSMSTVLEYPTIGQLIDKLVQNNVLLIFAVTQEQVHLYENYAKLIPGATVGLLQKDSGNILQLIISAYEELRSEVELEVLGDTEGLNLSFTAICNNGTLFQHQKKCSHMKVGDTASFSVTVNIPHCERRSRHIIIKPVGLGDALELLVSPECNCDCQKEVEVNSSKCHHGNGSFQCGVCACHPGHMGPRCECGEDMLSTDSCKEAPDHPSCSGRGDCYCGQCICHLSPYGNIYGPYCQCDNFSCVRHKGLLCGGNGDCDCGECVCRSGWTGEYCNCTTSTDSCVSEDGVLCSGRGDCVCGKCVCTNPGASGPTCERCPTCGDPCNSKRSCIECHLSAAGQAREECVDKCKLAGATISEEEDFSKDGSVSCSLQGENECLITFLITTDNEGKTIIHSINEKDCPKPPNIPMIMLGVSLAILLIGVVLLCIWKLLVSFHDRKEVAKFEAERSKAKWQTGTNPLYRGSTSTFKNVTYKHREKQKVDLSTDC

COCCN(CCCCc1ccc2c(n1)NCCC2)CC[C@H](Nc1ncnc2ccccc12)C(=O)O [Compound 5, (S)-4-((2-methoxyethyl)(4-(5,6,7,8-tetrahydro-1,8-naphthyridin-2-yl)butyl)amino)-2-(quinazolin-4-ylamino)butanoic acid]
LS Mean change from baseline in FVC at week 12, not on SoC subgroup ([1]; 40 mg (N=5)): -43.1 mL
Mean Percent Change in QLF extent from baseline to Week 12 ([1]; 40 mg (N=15)): 3.15%
LS Mean change from baseline in FVC at week 12, on SoC subgroup ([1]; 40 mg (N=17)): -58.3 mL
change in FVC from baseline to Week 12 ([1]; 40 mg dose group): -46.1 mL
reduction in FVC decline relative to placebo ([1]; 40 mg dose group): 38%
proportion of patients with ≥10% decline in FVCpp ([1]; 40 mg group): 18.2%
LS Mean change from baseline in FVC at week 12, not on SoC subgroup ([1]; 80 mg (N=4)): +138.1 mL
Mean Percent Change in QLF extent from baseline to Week 12 ([1]; 80 mg (N=18)): 0.70%
LS Mean change from baseline in FVC at week 12, on SoC subgroup ([1]; 80 mg (N=19)): -11.9 mL
change in FVC from baseline to Week 12 ([1]; 80 mg dose group): +24.6 mL
proportion of patients with > 2% increase in QLF at 12 weeks ([1]; 80 mg group): 11%
proportion of patients with ≥10% decline in FVCpp ([1]; 80 mg group): 8.7%
Mean Percent Change in QLF extent from baseline to Week 12 ([1]; 160 mg (N=14)): 0.00%
LS Mean change from baseline in FVC at week 12, not on SoC subgroup ([1]; 160 mg (n=3)): +25.8 mL
LS Mean change from baseline in FVC at week 12, on SoC subgroup ([1]; 160 mg (n=19)): -47.5 mL
change in FVC from baseline to Week 12 ([1]; 160 mg dose group): -25.1 mL
reduction in FVC decline relative to placebo ([1]; 160 mg dose group): 66%
proportion of patients with a decrease in QLF (>2% change) at 12 weeks ([1]; 160 mg group): 26.7%
proportion of patients with stable QLF (-2 to 2% change) at 12 weeks ([1]; 160 mg group): 46.6%
proportion of patients with ≥10% decline in FVCpp ([1]; 160 mg group): 4.5%
serum PRO-C3 (type III collagen synthesis) change from baseline vs placebo ([1]; not significant): decreased; also recorded: reduced
serum PRO-C6 (type VI collagen synthesis) change from baseline vs placebo ([1]; not significant): decreased; also recorded: reduced
change in FVC from baseline to Week 12 ([1]; pooled Compound 5 groups): -15.1 mL
reduction of COL1A1 expression (COL1A1 expression; Compound 5 200 nM, nintedanib 75 nM, pirfenidone 50 µM, 5-7 IPF lungs): 43%
concentration with significant reduction of COL1A1 expression (COL1A1 expression; single IPF lung, 200 pM to 1 µM tested): ≥ 2 nM
reduction in COL1A1 expression at concentrations with significant effect (COL1A1 expression; single IPF lung, Compound 5 ≥ 2 nM): ≥ 47%
Type I Collagen gene Col1a1 expression vs DMSO control [2]: decreased Type I Collagen gene Col1a1 expression substantially
decrease in volume of distribution of the knottin radiotracer in the lungs (αvβ6; 60 mg dose): approximately 50%
decrease in volume of distribution of the knottin radiotracer in the lungs (αvβ6; 240 and 320 mg doses): greater than 95%
%DeltaVt (αvβ6; Subject A00, 60 mg single dose): 52.23%
Vs (Vt corrected for non-displaceable binding, VND=0.66) (αvβ6; Subject A00, 60 mg single dose): 1.18
Vt (post-dose) (αvβ6; Subject A00, 60 mg single dose): 1.84
%DeltaVt (αvβ6; Subject B120, 120 mg): 58.76%
Vs (Vt corrected for non-displaceable binding, VND=0.66) (αvβ6; Subject B120, 120 mg): 0.99
Vt (post-dose) (αvβ6; Subject B120, 120 mg): 1.65
%DeltaVt (αvβ6; Subject B240, 240 mg): 97.56%
Vs (Vt corrected for non-displaceable binding, VND=0.66) (αvβ6; Subject B240, 240 mg): 0.06
Vt (post-dose) (αvβ6; Subject B240, 240 mg): 0.72
%DeltaVt (αvβ6; Subject C240, 240 mg): 70.91%
Vs (Vt corrected for non-displaceable binding, VND=0.66) (αvβ6; Subject C240, 240 mg): 0.32
Vt (post-dose) (αvβ6; Subject C240, 240 mg): 0.98
%DeltaVt (αvβ6; Subject C320, 320 mg): 82.73%
Vs (Vt corrected for non-displaceable binding, VND=0.66) (αvβ6; Subject C320, 320 mg): 0.19
Vt (post-dose) (αvβ6; Subject C320, 320 mg): 0.85
%DeltaVt (αvβ6; Subject D320, 320 mg): 93.57%
Vs (Vt corrected for non-displaceable binding, VND=0.66) (αvβ6; Subject D320, 320 mg): 0.09
Vt (post-dose) (αvβ6; Subject D320, 320 mg): 0.75
αvβ6 receptor occupancy (αvβ6; lungs of IPF participants): about 100%
concentration at which the exposure response saturates (αvβ6; measured drug exposure at 4 hours): about 100 nM
